# Source: ChEMBL document CHEMBL1201862, “PubChem BioAssay data set” (2004)
#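 Assay format: 96-well plates, 48-hour exposure. GI50 = concentration required for 50% inhibition of growth.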 Active and inactive are the calls of the source. Cut-off read from the data, not from the text of the source: active = GI50 up to about 1.1 µM and inactive = higher.
# Key:
# Test in all cases: inhibition of tumour cell growth, NCI panel, 48 h
# SF-295 = system: SF-295
# OVCAR-3 = system: OVCAR-3
# NCI-H522 = system: NCI-H522
# SNB-75 = system: SNB-75
# U-251 = system: U-251
# RXF 393 = system: RXF 393
# SF-268 = system: SF-268
# NCI-H460 = system: NCI-H460
# SK-MEL-28 = system: SK-MEL-28
# UO-31 = system: UO-31
# SW-620 = system: SW-620
# 786-0 = system: 786-0
# RPMI-8226 = system: RPMI-8226
# NCI-H23 = system: NCI-H23
# COLO 205 = system: COLO 205
# UACC-62 = system: UACC-62
# CCRF-CEM = system: CCRF-CEM
# SR = system: SR
SMILES,GI50 (SF-295),GI50 (OVCAR-3),GI50 (NCI-H522),GI50 (SNB-75),GI50 (U-251),GI50 (RXF 393),GI50 (SF-268),GI50 (NCI-H460),GI50 (SK-MEL-28),GI50 (UO-31),GI50 (SW-620),GI50 (786-0),GI50 (RPMI-8226),GI50 (NCI-H23),GI50 (COLO 205),GI50 (UACC-62),GI50 (CCRF-CEM),GI50 (SR)
COC(OC)c1cccc2c1C(=O)CCC1(CC2)OCCCCO1,> 100 µM (inactive),> 100 µM (inactive),> 100 µM (inactive),> 100 µM (inactive),> 100 µM (inactive),> 100 µM (inactive),> 100 µM (inactive),> 100 µM (inactive),> 100 µM (inactive),> 100 µM (inactive),> 100 µM (inactive),> 100 µM (inactive),> 100 µM (inactive),> 100 µM (inactive),> 100 µM (inactive),> 100 µM (inactive),> 100 µM (inactive),–
O=C1NC(=O)C2C(=O)NC(=O)C1C2c1c(Cl)cccc1Cl (configuration not stated),> 100 µM (inactive),> 100 µM (inactive),> 77.1 µM (inactive),> 63.5 µM (inactive),> 66.1 µM (inactive),> 43.1 µM (inactive),> 51.1 µM (inactive),> 42.2 µM (inactive),> 100 µM (inactive),> 100 µM (inactive),> 31.3 µM (inactive),> 61.8 µM (inactive),> 46.6 µM (inactive),> 100 µM (inactive),> 41.8 µM (inactive),> 100 µM (inactive),> 46.7 µM (inactive),> 100 µM (inactive)
CCC(=O)C(C)C1=Nc2nnc(CCCCCCCc3nnc4n3C(=O)C(C(C)C(=O)CC)=N4)n2C1=O (configuration not stated),> 100 µM (inactive),> 100 µM (inactive),> 100 µM (inactive),> 100 µM (inactive),> 100 µM (inactive),> 100 µM (inactive),> 100 µM (inactive),> 100 µM (inactive),> 100 µM (inactive),> 100 µM (inactive),> 100 µM (inactive),> 100 µM (inactive),> 100 µM (inactive),> 100 µM (inactive),> 100 µM (inactive),> 100 µM (inactive),> 100 µM (inactive),21.6 µM (inactive)
COC1(OC)CC2C(=O)N(Cc3ccccc3)C1C(S(=O)(=O)c1ccccc1)C2S(=O)(=O)c1ccccc1 (configuration not stated),45.7 µM (inactive),10.9 µM (inactive),2.02 µM (inactive),14.2 µM (inactive),13.6 µM (inactive),12.6 µM (inactive),14.1 µM (inactive),27.7 µM (inactive),13.7 µM (inactive),17.4 µM (inactive),2.13 µM (inactive),16.9 µM (inactive),15.9 µM (inactive),13.6 µM (inactive),4.53 µM (inactive),13.4 µM (inactive),2.91 µM (inactive),5.31 µM (inactive)
NC1=C(O)c2cccc3cccc(c23)C1=O,> 100 µM (inactive),> 100 µM (inactive),> 100 µM (inactive),> 100 µM (inactive),> 100 µM (inactive),> 100 µM (inactive),> 100 µM (inactive),–,> 100 µM (inactive),51.6 µM (inactive),> 100 µM (inactive),> 100 µM (inactive),> 100 µM (inactive),> 100 µM (inactive),> 100 µM (inactive),> 100 µM (inactive),> 100 µM (inactive),–
CC(=O)NNc1nc(C)c(C(=O)NNC(=O)C(=O)Nc2ccc(Cl)cc2Cl)s1,42.1 µM (inactive),19.6 µM (inactive),19.5 µM (inactive),–,31.1 µM (inactive),–,27.4 µM (inactive),> 10 µM (inactive),39.9 µM (inactive),28.2 µM (inactive),22.2 µM (inactive),40.7 µM (inactive),31.3 µM (inactive),32.8 µM (inactive),35.9 µM (inactive),25.2 µM (inactive),20.6 µM (inactive),–
Cc1cccc(N2C(=O)C(=O)C(c3nc4ccccc4s3)C(=O)C2=O)c1C,> 100 µM (inactive),> 100 µM (inactive),> 100 µM (inactive),> 100 µM (inactive),> 100 µM (inactive),–,> 100 µM (inactive),–,> 100 µM (inactive),> 100 µM (inactive),> 100 µM (inactive),> 100 µM (inactive),> 100 µM (inactive),> 100 µM (inactive),> 100 µM (inactive),> 100 µM (inactive),35.7 µM (inactive),> 100 µM (inactive)
CC(=O)/C(=N\O)C(=O)Nc1ccc(Cl)cc1Cl,> 100 µM (inactive),> 100 µM (inactive),97.9 µM (inactive),> 100 µM (inactive),> 100 µM (inactive),> 100 µM (inactive),> 100 µM (inactive),> 100 µM (inactive),> 100 µM (inactive),> 100 µM (inactive),> 100 µM (inactive),> 100 µM (inactive),> 100 µM (inactive),> 100 µM (inactive),> 100 µM (inactive),> 100 µM (inactive),19.1 µM (inactive),–
CC1(C)CC(c2c[nH]c3ccccc23)=CC2=Nc3ccccc3C21O (configuration not stated),38.5 µM (inactive),33.3 µM (inactive),34.8 µM (inactive),5.94 µM (inactive),33.2 µM (inactive),37.8 µM (inactive),> 100 µM (inactive),> 100 µM (inactive),16.4 µM (inactive),> 100 µM (inactive),52.1 µM (inactive),43.7 µM (inactive),> 100 µM (inactive),34 µM (inactive),> 100 µM (inactive),> 100 µM (inactive),> 100 µM (inactive),–
Cc1c(C(=O)C/C(=N/NC(=O)c2ccccc2O)C(=O)Nc2ccccc2C(C)C)[n+]([O-])c2ccccc2[n+]1[O-],56.9 µM (inactive),25.8 µM (inactive),20.9 µM (inactive),> 100 µM (inactive),45 µM (inactive),75.3 µM (inactive),33.9 µM (inactive),31.2 µM (inactive),69.7 µM (inactive),–,35.4 µM (inactive),49.7 µM (inactive),–,19.4 µM (inactive),31.7 µM (inactive),20 µM (inactive),1.47 µM (inactive),–
Cc1cccc(Nc2cn(CCOc3ccccc3)c(=O)n(CCOc3ccccc3)c2=O)c1,> 100 µM (inactive),> 100 µM (inactive),–,–,> 100 µM (inactive),> 100 µM (inactive),> 100 µM (inactive),> 100 µM (inactive),> 100 µM (inactive),> 100 µM (inactive),> 100 µM (inactive),> 100 µM (inactive),67.5 µM (inactive),> 100 µM (inactive),> 100 µM (inactive),> 100 µM (inactive),> 100 µM (inactive),> 100 µM (inactive)
COc1cc([C@@H]2c3cc4c(cc3[C@@H](NC(=O)c3ccc(OC(C)=O)cc3)C3COC(=O)[C@@H]32)OCO4)cc(OC)c1O (some centres not stated),2.24 µM (inactive),4.84 µM (inactive),1.73 µM (inactive),1.48 µM (inactive),0.308 µM (active),11.4 µM (inactive),2.01 µM (inactive),0.03 µM (active),3.48 µM (inactive),14.3 µM (inactive),0.729 µM (active),1.22 µM (inactive),1.32 µM (inactive),0.9 µM (active),10.2 µM (inactive),0.547 µM (active),0.213 µM (active),–
Cc1c2ccnc(O)c2cc2c(=O)c3cnccc3[nH]c12,> 100 µM (inactive),> 100 µM (inactive),> 100 µM (inactive),> 100 µM (inactive),> 100 µM (inactive),> 100 µM (inactive),> 100 µM (inactive),> 100 µM (inactive),> 100 µM (inactive),> 100 µM (inactive),> 100 µM (inactive),> 100 µM (inactive),> 100 µM (inactive),> 100 µM (inactive),> 100 µM (inactive),> 100 µM (inactive),> 100 µM (inactive),–
CCC1CNC(=O)CC1CC(=O)OC (configuration not stated),–,> 100 µM (inactive),> 100 µM (inactive),> 100 µM (inactive),> 100 µM (inactive),> 100 µM (inactive),> 100 µM (inactive),–,> 100 µM (inactive),> 100 µM (inactive),> 100 µM (inactive),> 100 µM (inactive),–,> 100 µM (inactive),–,> 100 µM (inactive),–,> 100 µM (inactive)
Cc1c(/C=C2\CC/C(=C\c3[nH]c(C(=O)OC(C)(C)C)c(C)c3C)C2=O)[nH]c(C(=O)OC(C)(C)C)c1C,> 100 µM (inactive),> 100 µM (inactive),> 100 µM (inactive),60.1 µM (inactive),> 100 µM (inactive),> 100 µM (inactive),> 100 µM (inactive),> 100 µM (inactive),–,> 100 µM (inactive),> 100 µM (inactive),> 100 µM (inactive),> 100 µM (inactive),> 100 µM (inactive),> 100 µM (inactive),> 100 µM (inactive),> 100 µM (inactive),> 100 µM (inactive)
COc1cc(CO)cc2c1[nH]c1ccccc12 [KOENOLINE],–,> 25 µM (inactive),24.6 µM (inactive),–,> 25 µM (inactive),> 25 µM (inactive),> 25 µM (inactive),24.4 µM (inactive),> 25 µM (inactive),> 25 µM (inactive),> 25 µM (inactive),> 25 µM (inactive),> 25 µM (inactive),–,> 25 µM (inactive),> 25 µM (inactive),> 25 µM (inactive),> 25 µM (inactive)
